Legend:
Nitric oxide synthase 1 [1] = target: Nitric oxide synthase 1 (Rattus norvegicus, UniProt P29476, D597N)
[2] = target: Nitric oxide synthase, inducible (Homo sapiens, UniProt P35228)
in vitro [3] = conditions: human, liver microsomes, pH 7.4
in vitro [4] = conditions: human, liver microsomes
Nitric oxide synthase 1 [5] = target: Nitric oxide synthase 1 (Homo sapiens, UniProt P29475)
in vitro [6] = conditions: human, liver microsomes; remark: listed apart in the source
Nitric oxide synthase 3 = target: T1, Nitric oxide synthase 3 (Homo sapiens, UniProt P29474)
T1 sequence (P29474 whole entry): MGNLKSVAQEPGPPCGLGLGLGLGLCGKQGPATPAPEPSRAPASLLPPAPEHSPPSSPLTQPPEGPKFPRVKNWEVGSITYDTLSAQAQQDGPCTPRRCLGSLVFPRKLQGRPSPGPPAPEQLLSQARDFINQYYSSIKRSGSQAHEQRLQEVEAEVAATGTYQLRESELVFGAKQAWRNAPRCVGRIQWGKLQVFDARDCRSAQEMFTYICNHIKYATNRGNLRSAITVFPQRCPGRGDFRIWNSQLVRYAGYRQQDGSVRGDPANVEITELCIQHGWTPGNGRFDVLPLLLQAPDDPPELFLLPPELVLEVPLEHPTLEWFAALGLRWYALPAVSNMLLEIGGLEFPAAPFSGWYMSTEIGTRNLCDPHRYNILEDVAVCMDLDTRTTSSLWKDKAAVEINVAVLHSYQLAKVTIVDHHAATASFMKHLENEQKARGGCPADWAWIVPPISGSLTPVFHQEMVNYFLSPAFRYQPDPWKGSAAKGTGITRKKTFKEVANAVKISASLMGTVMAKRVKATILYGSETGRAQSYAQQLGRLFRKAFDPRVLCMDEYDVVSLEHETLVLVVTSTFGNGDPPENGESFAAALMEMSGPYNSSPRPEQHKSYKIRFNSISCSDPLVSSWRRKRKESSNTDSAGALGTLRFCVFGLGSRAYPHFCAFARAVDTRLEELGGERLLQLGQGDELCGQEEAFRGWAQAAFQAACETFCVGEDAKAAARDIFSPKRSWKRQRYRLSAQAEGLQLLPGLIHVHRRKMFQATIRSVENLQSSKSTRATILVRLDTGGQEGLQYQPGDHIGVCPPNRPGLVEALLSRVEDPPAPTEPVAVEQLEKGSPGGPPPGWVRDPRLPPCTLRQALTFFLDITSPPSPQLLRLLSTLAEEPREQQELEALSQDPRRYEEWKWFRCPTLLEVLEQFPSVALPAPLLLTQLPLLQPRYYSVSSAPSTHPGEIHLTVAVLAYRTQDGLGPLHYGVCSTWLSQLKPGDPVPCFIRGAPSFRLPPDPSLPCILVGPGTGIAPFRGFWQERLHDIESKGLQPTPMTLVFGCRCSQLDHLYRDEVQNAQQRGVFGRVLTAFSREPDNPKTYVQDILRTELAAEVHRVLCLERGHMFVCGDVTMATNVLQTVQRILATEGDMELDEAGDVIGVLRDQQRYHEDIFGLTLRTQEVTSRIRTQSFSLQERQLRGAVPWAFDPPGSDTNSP

in vitro [7] = conditions: human, liver microsomes; remark: listed apart in the source
Nitric oxide synthase 1 [8] = target: Nitric oxide synthase 1 (Rattus norvegicus, UniProt P29476)
Nitric oxide synthase 1 (Rattus norvegicus, UniProt P29476), sequence (P29476 whole entry): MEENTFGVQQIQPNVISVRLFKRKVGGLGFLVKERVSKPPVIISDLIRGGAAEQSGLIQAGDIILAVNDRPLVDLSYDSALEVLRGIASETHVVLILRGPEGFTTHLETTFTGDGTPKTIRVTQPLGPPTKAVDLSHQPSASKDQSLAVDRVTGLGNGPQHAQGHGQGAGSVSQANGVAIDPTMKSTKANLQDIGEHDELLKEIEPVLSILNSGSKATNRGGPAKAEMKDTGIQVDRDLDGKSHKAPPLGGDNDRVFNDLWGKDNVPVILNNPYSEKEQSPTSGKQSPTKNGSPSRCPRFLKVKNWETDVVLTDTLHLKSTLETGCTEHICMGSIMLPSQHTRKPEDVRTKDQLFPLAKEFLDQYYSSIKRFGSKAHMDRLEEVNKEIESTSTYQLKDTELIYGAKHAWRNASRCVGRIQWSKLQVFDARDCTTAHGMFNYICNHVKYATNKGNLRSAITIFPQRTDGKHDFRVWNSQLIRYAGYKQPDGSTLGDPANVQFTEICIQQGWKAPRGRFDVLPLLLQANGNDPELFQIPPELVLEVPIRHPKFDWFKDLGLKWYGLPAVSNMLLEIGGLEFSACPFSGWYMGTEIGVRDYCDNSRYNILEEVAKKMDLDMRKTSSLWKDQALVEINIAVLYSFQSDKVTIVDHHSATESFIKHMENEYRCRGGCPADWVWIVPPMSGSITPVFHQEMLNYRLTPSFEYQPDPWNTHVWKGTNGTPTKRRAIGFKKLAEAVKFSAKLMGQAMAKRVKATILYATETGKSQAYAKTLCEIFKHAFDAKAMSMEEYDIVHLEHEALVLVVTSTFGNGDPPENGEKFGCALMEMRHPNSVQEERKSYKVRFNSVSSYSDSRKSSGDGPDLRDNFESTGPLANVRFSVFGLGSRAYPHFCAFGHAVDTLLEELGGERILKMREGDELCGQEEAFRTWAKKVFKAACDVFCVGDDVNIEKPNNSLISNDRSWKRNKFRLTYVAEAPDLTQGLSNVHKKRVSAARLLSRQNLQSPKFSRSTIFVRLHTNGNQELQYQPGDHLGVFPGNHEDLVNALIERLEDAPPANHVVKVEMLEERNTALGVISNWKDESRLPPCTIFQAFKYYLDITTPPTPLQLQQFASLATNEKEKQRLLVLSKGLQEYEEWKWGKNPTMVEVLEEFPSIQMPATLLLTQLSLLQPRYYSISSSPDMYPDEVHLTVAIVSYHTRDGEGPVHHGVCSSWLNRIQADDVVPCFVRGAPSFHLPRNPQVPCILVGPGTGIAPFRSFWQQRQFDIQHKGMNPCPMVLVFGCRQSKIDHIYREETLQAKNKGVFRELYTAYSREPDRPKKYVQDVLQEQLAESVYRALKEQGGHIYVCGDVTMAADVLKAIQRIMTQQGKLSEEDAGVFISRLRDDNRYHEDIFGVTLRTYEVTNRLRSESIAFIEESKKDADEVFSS

Nitric oxide synthase, inducible, sequence (P35228 whole entry): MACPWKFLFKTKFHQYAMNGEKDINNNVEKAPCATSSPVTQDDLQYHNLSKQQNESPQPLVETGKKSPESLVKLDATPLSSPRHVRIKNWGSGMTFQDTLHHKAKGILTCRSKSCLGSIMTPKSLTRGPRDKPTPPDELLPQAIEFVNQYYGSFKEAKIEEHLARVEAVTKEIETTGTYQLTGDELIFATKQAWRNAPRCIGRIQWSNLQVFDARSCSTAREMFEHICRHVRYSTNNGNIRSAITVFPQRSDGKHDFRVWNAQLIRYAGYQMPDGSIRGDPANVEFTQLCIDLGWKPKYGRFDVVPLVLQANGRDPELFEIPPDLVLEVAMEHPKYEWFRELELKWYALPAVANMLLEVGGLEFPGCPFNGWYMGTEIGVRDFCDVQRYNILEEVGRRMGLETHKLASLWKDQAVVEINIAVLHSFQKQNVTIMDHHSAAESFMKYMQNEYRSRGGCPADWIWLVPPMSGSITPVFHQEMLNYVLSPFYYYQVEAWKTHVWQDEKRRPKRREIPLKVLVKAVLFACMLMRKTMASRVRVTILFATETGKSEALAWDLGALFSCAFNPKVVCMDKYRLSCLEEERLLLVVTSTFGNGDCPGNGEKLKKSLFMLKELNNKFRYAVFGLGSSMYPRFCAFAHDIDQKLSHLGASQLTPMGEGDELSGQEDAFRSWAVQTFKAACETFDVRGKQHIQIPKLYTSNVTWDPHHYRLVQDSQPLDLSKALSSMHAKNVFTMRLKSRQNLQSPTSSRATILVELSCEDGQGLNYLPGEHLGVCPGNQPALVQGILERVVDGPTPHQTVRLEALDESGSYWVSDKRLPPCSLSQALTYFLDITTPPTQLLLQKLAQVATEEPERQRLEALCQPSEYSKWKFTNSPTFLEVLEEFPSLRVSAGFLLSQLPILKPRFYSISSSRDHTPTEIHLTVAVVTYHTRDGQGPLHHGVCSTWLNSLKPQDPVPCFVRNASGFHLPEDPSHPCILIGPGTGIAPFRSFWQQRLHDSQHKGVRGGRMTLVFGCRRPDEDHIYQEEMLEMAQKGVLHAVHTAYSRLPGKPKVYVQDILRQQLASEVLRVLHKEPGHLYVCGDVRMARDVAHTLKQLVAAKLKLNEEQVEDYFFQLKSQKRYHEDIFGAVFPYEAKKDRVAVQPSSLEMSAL
Nitric oxide synthase 1 (Homo sapiens, UniProt P29475), sequence (P29475 whole entry): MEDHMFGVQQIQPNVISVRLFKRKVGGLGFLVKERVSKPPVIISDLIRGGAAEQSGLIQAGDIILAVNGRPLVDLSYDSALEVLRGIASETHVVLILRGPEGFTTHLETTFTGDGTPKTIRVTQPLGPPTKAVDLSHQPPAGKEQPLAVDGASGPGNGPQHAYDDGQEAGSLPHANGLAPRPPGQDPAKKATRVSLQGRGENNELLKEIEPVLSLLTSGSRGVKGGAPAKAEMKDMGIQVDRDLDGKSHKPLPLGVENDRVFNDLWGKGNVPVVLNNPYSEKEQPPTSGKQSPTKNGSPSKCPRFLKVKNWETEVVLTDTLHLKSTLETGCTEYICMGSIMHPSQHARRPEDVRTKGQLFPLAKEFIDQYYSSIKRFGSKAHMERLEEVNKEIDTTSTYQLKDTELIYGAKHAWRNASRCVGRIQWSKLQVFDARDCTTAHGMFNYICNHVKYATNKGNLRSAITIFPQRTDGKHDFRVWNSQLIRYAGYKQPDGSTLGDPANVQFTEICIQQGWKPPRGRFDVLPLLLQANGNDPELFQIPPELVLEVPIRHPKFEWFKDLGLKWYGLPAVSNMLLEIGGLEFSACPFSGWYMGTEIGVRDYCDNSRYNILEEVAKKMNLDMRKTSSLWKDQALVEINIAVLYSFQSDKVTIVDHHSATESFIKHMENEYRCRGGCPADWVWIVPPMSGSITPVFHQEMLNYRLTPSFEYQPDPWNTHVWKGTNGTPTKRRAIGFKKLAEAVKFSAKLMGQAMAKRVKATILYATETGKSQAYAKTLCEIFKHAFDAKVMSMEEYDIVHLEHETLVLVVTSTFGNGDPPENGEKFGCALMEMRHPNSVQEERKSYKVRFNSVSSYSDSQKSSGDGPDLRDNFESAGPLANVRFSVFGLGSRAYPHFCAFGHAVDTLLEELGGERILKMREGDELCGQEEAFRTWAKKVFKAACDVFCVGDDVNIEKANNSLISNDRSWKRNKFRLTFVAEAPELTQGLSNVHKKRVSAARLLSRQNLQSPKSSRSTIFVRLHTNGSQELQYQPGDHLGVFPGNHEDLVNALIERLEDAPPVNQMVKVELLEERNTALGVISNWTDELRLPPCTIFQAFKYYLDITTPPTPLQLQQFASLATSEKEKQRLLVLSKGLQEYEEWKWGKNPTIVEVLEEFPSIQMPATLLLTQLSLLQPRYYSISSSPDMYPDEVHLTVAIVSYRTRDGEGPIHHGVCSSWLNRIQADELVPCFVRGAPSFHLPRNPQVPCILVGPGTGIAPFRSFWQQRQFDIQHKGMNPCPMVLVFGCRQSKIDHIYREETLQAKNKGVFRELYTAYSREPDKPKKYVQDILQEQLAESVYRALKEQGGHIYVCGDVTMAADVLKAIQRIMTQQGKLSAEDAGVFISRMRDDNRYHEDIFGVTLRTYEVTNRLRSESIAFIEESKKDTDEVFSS
Nitric oxide synthase 1 (Rattus norvegicus, UniProt P29476, D597N), sequence (P29476 whole entry D597N): as the sequence (P29476 whole entry) above, with D597N counted along it

Q: For Cc1cc(N)nc2cc(-c3cccc(CN)c3)ccc12.Cl.Cl, which Ki (Nitric oxide synthase 1 [1]) is on record?
A: Its Ki is 416 nM.

Q: What about the Ki [2] of the same molecule?
A: The Ki was 29900 nM.

Q: What about the remaining at 1 h, 1.426 µM (in vitro [3]) of the same molecule?
A: Its remaining at 1 h, 1.426 µM is 67%.

Q: What about the CLint scaled at 1 h, 1.426 µM (in vitro [4]) of the same molecule?
A: Its CLint scaled at 1 h, 1.426 µM is 8 mL/min/kg.

Q: And the Ki (Nitric oxide synthase 1 [5])?
A: The Ki was 60 nM.

Q: And the remaining at 1 h, 1.426 µM (in vitro [6])?
A: The remaining at 1 h, 1.426 µM was 87%.

Q: What about the Ki (Nitric oxide synthase 3) of the same molecule?
A: Its Ki is 52600 nM.

Q: And the half-life at 1 h, 1.426 µM (in vitro [7])?
A: Its half-life at 1 h, 1.426 µM is > 1 h.

Q: What about the Ki (Nitric oxide synthase 1 [8]) of the same molecule?
A: The Ki was 55 nM.

From ChEMBL document CHEMBL4342518, “First Contact: 7-Phenyl-2-Aminoquinolines, Potent and Selective Neuronal Nitric Oxide Synthase Inhibitors That Target an Isoform-Specific Aspartate” (J Med Chem, 2020)
